Data from patent US20130210771A1, “METHODS AND COMPOSITIONS FOR TREATING CANCERS” (IRM LLC, priority 2007, published 2013).
Counter-ions that a name gives are not always drawn.

How the values were obtained:
[1] = test system: BCR-ABL positive leukemia; assay: treatment of mice transplanted with BCR-ABL positive bone marrow (CML-like disease); type: in vivo, mouse
Method: Ptch+/− mice (Jackson Laboratory), Smo−/− mice (Deltagene), C57BL/6 mice (Jackson laboratory) and B6-Pep3b-Ly5.1 (Pep) mice) are maintained and genotyped as described. For bone marrow transplantation experiments, C57BL/6 males are injected with 5-FU (150 mg/kg) intraperitoneal and sacrificed four days later. Bone marrow mononuclear cells are flushed from the leg bones, red blood cells are lysed with ammonium-chloride and bone marrow cells are cultivated in DMEM containing 10% FBS, SCF, IL-6 and IL-3. Cells are infected with a pMSCV/BCR-ABL/IRES/GFP retrovirus, 5×10^5 mononuclear cells are transplanted into lethally irradiated C57BL/6 mice. Treatment with AMN107 50 mg/kg bid (Novartis, Basel) and cyclopamine 25 mg/kg bid (Novartis, Cambridge) started day 7 after transplantation for 14 days.
Mice transplanted with BCR-ABL positive bone marrow is treated with either a suboptimal dose of the ABL inhibitor AMN107, or with a combination of AMN107 (50 mg/kg qd) and the Smo antagonist cyclopamine (25 mg/kg bid). Treatment is started seven days after transplantation and is continued for fourteen days total. At the end of the treatment, three mice in each group are sacrificed and bone marrow from 1 femur is plated in methyl cellulose colony assays without addition of cytokines to detect only BCR-ABL positive colonies.
Eight days after the end of treatment, another three mice per group are sacrificed and examined for signs of relapse by comparing liver and spleen weight. […] The five remaining mice in each group are monitored for signs of disease and sacrificed when moribund.

[2] = test system: Ba/F3 cells transfected with E255V mutant BCR-ABL; conditions: cited from earlier work
[3] = test system: Ba/F3 cells transfected with M351T mutant BCR-ABL; conditions: cited from earlier work
[4] = test system: Ba/F3 cells transfected with p210 non-mutated BCR-ABL; conditions: cited from earlier work
CML = CML therapy; cited from earlier work
[5] = test system: BCR-ABL positive bone marrow cells; assay: in vitro treatment of mixed bone marrow cultures from mice with CML-like syndrome, flow cytometry; type: cell-based, mouse
Method: (§1) Bone marrow cells from diseased mice are cultured in DMEM media containing 10% FBS (Gibco), SCF (RDI), IL-3 and IL-6 (R&D systems). For in-vitro treatment experiments, 4×10^6 bone marrow or spleen cells are seeded into 1 well of a 6-well plate. Cyclopamine-KAAD (obtained from Toronto Research Chemicals) is dissolved as ×1,000 stock in DMSO. After 72 hours of treatment, cells are plated in methyl cellulose media containing SCF, IL-6, IL-3 and insulin from stem cell technologies (M3434) according to the manufacturer's instruction. Colonies are counted 5 days and 10 days after plating. After 12 days, cells are diluted from the plates, washed in PBS and then either stained for analysis of different cell types or replated into a second or third plating round.
Flow cytometry stainings for analysis of hematological cell types is performed using the antibodies Sca-PE, Kit-APC, Lin markers CD3, Gr-1, CD11b, CD19, Ter119 all PE-Cy7 positive, CD4-PE, CD8-APC from BD Pharmingen according to the manufacturer's instructions. For cell cycle analysis of stem cells, cells are treated with cyclopamine for 48 hours, then stained with Lin markers, Kit-APC and Sca-PE. Stained bone marrow is then fixed in 2% Formalin. Cells are permeabilized with 70% chilled ethanol for at least 1 hour and then treated with propidium iodide (5 mg/ml) for at least 30 minutes. Cells are analyzed using a flow cytometer from Coulter. Annexin staining is performed after incubation of mixed bone marrow with cyclopamine for 24, 48 and 72 hours. Cells are stained with Annexin-PE antibody and 7-AAD (BD Bioscience) according to the manufacturer's instructions.
Bone marrow from mice with CML-like syndrome which contained about 50% BCR-ABL GFP positive cells versus 50% normal bone marrow cells is used. […] GFP positive cells after in vitro treatment with cyclopamine (2 μM or 5 μM) can be detected by flow cytometry analysis.
(§2) Gli1 transcript levels in the bone marrow are reduced after treatment with cyclopamine, verifying the inhibition of the hedgehog signaling pathway in those cells by the compound (FIG. 2B). In FIG. 2B, bone marrow cultures are treated with either DMSO alone or different concentrations of cyclopamine (2 μM or 5 μM) for six hours. RNA is extracted from treated cultures and Gli1 transcript levels are measured by Taqman PCT and normalized to GAPDH. Assays are done in triplicates.

[6] = test system: BCR-ABL positive colonies; assay: methyl cellulose colony assay of pretreated mixed bone marrow and spleen cultures; type: cell-based, mouse; conditions: 10, 5, 2.5, 1 and 0 uM for 48 hours; colonies counted 10 days after plating, no cytokines (FIG. 2C)
Method: as §1
To further validate the effect of hedgehog pathway inhibition on the self renewing progenitor and leukemic stem cell population, mixed bone marrow and spleen cultures are treated with different concentrations of cyclopamine-KAAD (10, 5, 2.5, 1 and 0 uM) for 48 hours. The cells are then plated in methyl cellulose plates without supplementary cytokines, so that only BCR-ABL positive cells can survive. Colonies are counted 10 days after plating.

Aurora kinases = conditions: cited from earlier work
[7] = test system: human CML K562 cells selected for resistance to imatinib; conditions: cited from earlier work
Gli1 = Gli1 transcript levels in treated bone marrow cultures (Taqman PCR); type: cell-based, mouse; conditions: 2 μM or 5 μM, six hours, normalized to GAPDH (FIG. 2B)
Method: RNA is extracted from CD34+ cells from CML patients in chronic phase or blast crisis of disease, from whole bone marrow or from sorted Lin−Kit+Sca+ positive cells using a Qiagen RNA extraction kit according to the manufacturer's recommendation. Quantitative PCR is assessed by Taqman PCR. Primers and probes are obtained from Applied Biosystems.
as §2

[8] = eight days after the end of treatment
[9] = mixed bone marrow cultures, 72 hours (FIG. 2A)

Cc1cn(-c2cc(NC(=O)c3ccc(C)c(Nc4nccc(-c5cccnc5)n4)c3)cc(C(F)(F)F)c2)cn1 [AMN107, nilotinib]
peripheral blood cell counts, spleen and liver weights ([1]; at the end of the treatment): normal | average spleen size relative to the combination group [1, 8]: about double | liver weight relative to the combination group [1, 8]: much higher | average survival after end of treatment ([1]; five mice per group, sacrificed when moribund (FIG. 5C)): eight

NC(=O)c1cccc(-c2cc(Nc3ccc(OC(F)(F)F)cc3)ncn2)c1 [GNF-2, 3-[6-[[4-(trifluoromethoxy)phenyl]amino]-4-pyrimidinyl]benzamide]
proliferation of Ba/F3 cells, E255V mutant BCR-ABL [2]: inhibits the proliferation | proliferation of Ba/F3 cells, M351T mutant BCR-ABL [3]: inhibits the proliferation | proliferation of Ba/F3 cells, p210 non-mutated BCR-ABL [4]: inhibits the proliferation

Cc1ccc(NC(=O)c2ccc(CN3CCN(C)CC3)cc2)cc1Nc1nccc(-c2cccnc2)n1 [Imatinib mesylate]
response rates (CML): more than 96%

CC1=C2C[C@H]3[C@@H](CC=C4CC(=O)CC[C@@]43C)[C@@H]2CC[C@]12O[C@@H]1C[C@H](C)CN(CCNC(=O)CCCCCNC(=O)CCc3ccccc3)[C@H]1[C@H]2C [KAAD-cyclopamine]
reduction of the GFP/BCR-ABL positive population compared to the GFP negative population ([5]; mixed bone marrow cultures, three days, 2 μM or 5 μM): dose dependent reduction | BCR-ABL positive colonies [6]: dose dependent reduction

Cc1cc(Nc2cc(N3CCN(C)CC3)nc(Sc3ccc(NC(=O)C4CC4)cc3)n2)n[nH]1 [MK-0457]
inhibition of all three Aurora kinases (Aurora kinases): nanomolar range

Cc1cc(Nc2ncc3cc(-c4c(Cl)cccc4Cl)c(=O)n(C)c3n2)ccc1F [PD180970]
proliferation of imatinib-resistant K562 cells over-expressing Lyn [7]: inhibited

CC1=C2C[C@H]3[C@@H](CC=C4C[C@@H](O)CC[C@@]43C)[C@@H]2CC[C@]12O[C@@H]1C[C@H](C)CN[C@H]1[C@H]2C [cyclopamine]
alterations in the cell cycle, complete bone marrow ([5]; 48 hours, propidium iodide): relative increase of the G1 phase compared to S phase and G2 phase | cell cycle analysis of the leukemic stem cell population ([5]; 48 hours, propidium iodide): complete loss of the G2 phase | apoptosis induction in BCR-ABL positive bone marrow cells, time ([5]; AnnexinV staining): ≤ 24 h | reduction of BCR-ABL positive myeloid progenitor cells (Lin−Kit+Sca−) [5, 9]: more than 80% | reduction of the Lin−Kit+Sca+ leukemic stem cell population [5, 9]: around 70% | Gli1 transcript levels in the bone marrow (Gli1): reduced
